Results from paper PMC3968014, “Design and Synthesis of a Library of Lead-Like 2,4-Bisheterocyclic Substituted Thiophenes as Selective Dyrk/Clk Inhibitors” (PLoS ONE, 2014).

Assays:
[1] = target: T1, MAPK9 (JNK2) (Homo sapiens, UniProt P45984); test: Selectivity panel MAPK9; assay type: biochemical; conditions: 5 µM inhibitor
T1 construct: purchased Life Technologies (Invitrogen SelectScreen); Dyrk1A, Dyrk2 and CK2α in-house or gifts

[2] = target: T2, MAP2K1 (MEK1) (Homo sapiens, UniProt Q02750); test: Selectivity panel MAP2K1; assay type: biochemical; conditions: 5 µM inhibitor
T2 construct: purchased Life Technologies (Invitrogen SelectScreen); Dyrk1A, Dyrk2 and CK2α in-house or gifts

[3] = target: T3, MAPK12 (p38 gamma, ERK3) (Homo sapiens, UniProt P53778); test: Selectivity panel MAPK12; assay type: biochemical; conditions: 5 µM inhibitor
T3 construct: purchased Life Technologies (Invitrogen SelectScreen); Dyrk1A, Dyrk2 and CK2α in-house or gifts
T3 sequence (P53778 whole entry): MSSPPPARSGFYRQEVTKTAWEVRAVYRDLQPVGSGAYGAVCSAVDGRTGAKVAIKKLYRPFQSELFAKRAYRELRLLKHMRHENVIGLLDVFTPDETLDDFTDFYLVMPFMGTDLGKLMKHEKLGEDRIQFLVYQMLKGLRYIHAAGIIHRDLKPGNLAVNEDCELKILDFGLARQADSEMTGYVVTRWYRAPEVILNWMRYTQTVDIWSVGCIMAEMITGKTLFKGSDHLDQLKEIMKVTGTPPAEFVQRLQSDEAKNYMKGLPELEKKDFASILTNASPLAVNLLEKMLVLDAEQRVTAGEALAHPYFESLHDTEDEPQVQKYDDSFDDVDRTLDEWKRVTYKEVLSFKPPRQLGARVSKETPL

[4] = target: T4, MYLK2 (skMLCK) (Homo sapiens, UniProt Q9H1R3); test: Selectivity panel MYLK2; assay type: biochemical; conditions: 5 µM inhibitor
T4 construct: purchased Life Technologies (Invitrogen SelectScreen); Dyrk1A, Dyrk2 and CK2α in-house or gifts

[5] = target: T5, MAPK8 (JNK1) (Homo sapiens, UniProt P45983); test: Selectivity panel MAPK8; assay type: biochemical; conditions: 5 µM inhibitor
T5 construct: purchased Life Technologies (Invitrogen SelectScreen); Dyrk1A, Dyrk2 and CK2α in-house or gifts

[6] = target: T6, ABL1 (Homo sapiens, UniProt P00519); test: Selectivity panel ABL1; assay type: biochemical; conditions: 5 µM inhibitor
T6 construct: purchased Life Technologies (Invitrogen SelectScreen); Dyrk1A, Dyrk2 and CK2α in-house or gifts

[7] = target: T7, MINK1 (Homo sapiens, UniProt Q8N4C8); test: Selectivity panel MINK1; assay type: biochemical; conditions: 5 µM inhibitor
T7 construct: purchased Life Technologies (Invitrogen SelectScreen); Dyrk1A, Dyrk2 and CK2α in-house or gifts
T7 sequence (Q8N4C8 whole entry): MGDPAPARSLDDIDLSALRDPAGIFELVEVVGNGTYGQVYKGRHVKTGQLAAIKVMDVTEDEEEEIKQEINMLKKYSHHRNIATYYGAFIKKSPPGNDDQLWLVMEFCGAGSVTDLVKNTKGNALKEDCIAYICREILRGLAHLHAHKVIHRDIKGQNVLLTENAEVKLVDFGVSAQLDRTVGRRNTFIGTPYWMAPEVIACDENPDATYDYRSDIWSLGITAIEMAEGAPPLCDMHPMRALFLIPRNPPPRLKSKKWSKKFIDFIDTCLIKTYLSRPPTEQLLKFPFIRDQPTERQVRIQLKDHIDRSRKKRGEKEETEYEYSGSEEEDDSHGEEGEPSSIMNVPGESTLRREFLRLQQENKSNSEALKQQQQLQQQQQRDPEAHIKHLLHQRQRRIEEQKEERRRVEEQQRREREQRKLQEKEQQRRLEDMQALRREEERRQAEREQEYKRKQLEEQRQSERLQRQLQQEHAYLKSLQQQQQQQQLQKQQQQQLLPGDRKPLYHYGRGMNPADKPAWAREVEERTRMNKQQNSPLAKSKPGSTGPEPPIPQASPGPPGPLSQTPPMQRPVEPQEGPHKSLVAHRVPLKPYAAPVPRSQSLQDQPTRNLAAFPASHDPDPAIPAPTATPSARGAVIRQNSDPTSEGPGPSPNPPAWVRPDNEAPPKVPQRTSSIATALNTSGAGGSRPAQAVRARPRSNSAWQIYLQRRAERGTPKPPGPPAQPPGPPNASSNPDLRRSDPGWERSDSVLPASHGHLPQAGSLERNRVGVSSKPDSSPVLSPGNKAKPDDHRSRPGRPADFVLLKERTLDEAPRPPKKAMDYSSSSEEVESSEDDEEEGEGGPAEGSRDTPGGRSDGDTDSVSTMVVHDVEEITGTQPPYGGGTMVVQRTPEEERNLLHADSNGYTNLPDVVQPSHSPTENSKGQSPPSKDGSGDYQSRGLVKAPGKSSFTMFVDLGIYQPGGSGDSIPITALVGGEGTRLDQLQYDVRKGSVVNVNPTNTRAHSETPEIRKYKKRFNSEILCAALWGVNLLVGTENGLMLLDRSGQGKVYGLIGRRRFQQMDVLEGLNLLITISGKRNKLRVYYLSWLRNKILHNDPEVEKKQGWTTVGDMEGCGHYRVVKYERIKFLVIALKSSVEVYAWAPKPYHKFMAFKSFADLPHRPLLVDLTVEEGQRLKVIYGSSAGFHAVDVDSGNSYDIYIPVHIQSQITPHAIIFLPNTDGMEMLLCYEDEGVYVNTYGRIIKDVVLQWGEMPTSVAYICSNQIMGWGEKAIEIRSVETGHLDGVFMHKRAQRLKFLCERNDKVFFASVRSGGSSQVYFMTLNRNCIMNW

[8] = target: T8, IGF1R (Homo sapiens, UniProt P08069); test: Selectivity panel IGF1R; assay type: biochemical; conditions: 5 µM inhibitor
T8 construct: purchased Life Technologies (Invitrogen SelectScreen); Dyrk1A, Dyrk2 and CK2α in-house or gifts

[9] = target: T9, MAP4K2 (GCK) (Homo sapiens, UniProt Q12851); test: Selectivity panel MAP4K2; assay type: biochemical; conditions: 5 µM inhibitor
T9 construct: purchased Life Technologies (Invitrogen SelectScreen); Dyrk1A, Dyrk2 and CK2α in-house or gifts

[10] = target: T10, PKN1 (PRK1) (Homo sapiens, UniProt Q16512); test: Selectivity panel PKN1; assay type: biochemical; conditions: 5 µM inhibitor
T10 construct: purchased Life Technologies (Invitrogen SelectScreen); Dyrk1A, Dyrk2 and CK2α in-house or gifts

[11] = target: T11, DAPK3 (ZIPK) (Homo sapiens, UniProt O43293); test: Selectivity panel DAPK3; assay type: biochemical; conditions: 5 µM inhibitor
T11 construct: purchased Life Technologies (Invitrogen SelectScreen); Dyrk1A, Dyrk2 and CK2α in-house or gifts
T11 sequence (O43293 whole entry): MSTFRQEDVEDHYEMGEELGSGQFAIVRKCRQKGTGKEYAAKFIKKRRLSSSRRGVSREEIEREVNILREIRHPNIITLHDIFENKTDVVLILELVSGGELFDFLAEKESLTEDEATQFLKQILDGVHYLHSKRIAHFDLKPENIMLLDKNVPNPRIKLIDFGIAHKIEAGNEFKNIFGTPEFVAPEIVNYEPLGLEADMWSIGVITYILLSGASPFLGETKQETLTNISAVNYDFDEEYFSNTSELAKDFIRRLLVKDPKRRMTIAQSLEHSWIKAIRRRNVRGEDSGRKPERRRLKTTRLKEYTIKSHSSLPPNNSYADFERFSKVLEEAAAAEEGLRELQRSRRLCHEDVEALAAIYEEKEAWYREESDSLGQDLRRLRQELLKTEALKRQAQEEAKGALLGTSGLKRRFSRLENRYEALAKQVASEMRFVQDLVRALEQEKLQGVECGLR

[12] = target: T12, AKT1 (PKB alpha) (Homo sapiens, UniProt P31749); test: Selectivity panel AKT1; assay type: biochemical; conditions: 5 µM inhibitor
T12 construct: purchased Life Technologies (Invitrogen SelectScreen); Dyrk1A, Dyrk2 and CK2α in-house or gifts

[13] = target: T13, PRKCE (PKC epsilon) (Homo sapiens, UniProt Q02156); test: Selectivity panel PRKCE; assay type: biochemical; conditions: 5 µM inhibitor
T13 construct: purchased Life Technologies (Invitrogen SelectScreen); Dyrk1A, Dyrk2 and CK2α in-house or gifts

[14] = target: T14, IRAK4 (Homo sapiens, UniProt Q9NWZ3); test: Selectivity panel IRAK4; assay type: biochemical; conditions: 5 µM inhibitor
T14 construct: purchased Life Technologies (Invitrogen SelectScreen); Dyrk1A, Dyrk2 and CK2α in-house or gifts

[15] = target: T15, RPS6KA5 (MSK1) (Homo sapiens, UniProt O75582); test: Selectivity panel RPS6KA5; assay type: biochemical; conditions: 5 µM inhibitor
T15 construct: purchased Life Technologies (Invitrogen SelectScreen); Dyrk1A, Dyrk2 and CK2α in-house or gifts

[16] = target: T16, PDK1 (Homo sapiens, UniProt O15530); test: Selectivity panel PDK1; assay type: biochemical; conditions: 5 µM inhibitor
T16 construct: purchased Life Technologies (Invitrogen SelectScreen); Dyrk1A, Dyrk2 and CK2α in-house or gifts

[17] = target: T17, SGK (SGK1) (Homo sapiens, UniProt O00141); test: Selectivity panel SGK; assay type: biochemical; conditions: 5 µM inhibitor
T17 construct: purchased Life Technologies (Invitrogen SelectScreen); Dyrk1A, Dyrk2 and CK2α in-house or gifts
T17 sequence (O00141 whole entry): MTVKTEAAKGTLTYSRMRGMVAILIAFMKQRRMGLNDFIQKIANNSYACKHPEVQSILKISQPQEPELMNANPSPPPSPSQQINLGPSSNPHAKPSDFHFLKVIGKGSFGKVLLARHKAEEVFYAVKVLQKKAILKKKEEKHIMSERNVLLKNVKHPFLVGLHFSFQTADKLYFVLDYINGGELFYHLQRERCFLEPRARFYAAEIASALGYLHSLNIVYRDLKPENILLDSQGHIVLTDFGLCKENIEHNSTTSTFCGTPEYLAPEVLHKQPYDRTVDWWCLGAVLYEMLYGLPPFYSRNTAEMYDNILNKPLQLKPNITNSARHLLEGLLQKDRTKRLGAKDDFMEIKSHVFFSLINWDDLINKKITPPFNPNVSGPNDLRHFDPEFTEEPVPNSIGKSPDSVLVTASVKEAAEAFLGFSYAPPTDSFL

[18] = target: T18, STK23 (MSSK1) (Homo sapiens, UniProt Q9UPE1); test: Selectivity panel STK23; assay type: biochemical; conditions: 5 µM inhibitor
T18 construct: purchased Life Technologies (Invitrogen SelectScreen); Dyrk1A, Dyrk2 and CK2α in-house or gifts

[19] = target: T19, RAF1 (cRAF) Y340D Y341D (Homo sapiens, UniProt P04049, Y340D/Y341D); test: Selectivity panel RAF1; assay type: biochemical; conditions: 5 µM inhibitor
T19 construct: purchased Life Technologies (Invitrogen SelectScreen); Dyrk1A, Dyrk2 and CK2α in-house or gifts

[20] = target: T20, MAP2K6 (MKK6) (Homo sapiens, UniProt P52564); test: Selectivity panel MAP2K6; assay type: biochemical; conditions: 5 µM inhibitor
T20 construct: purchased Life Technologies (Invitrogen SelectScreen); Dyrk1A, Dyrk2 and CK2α in-house or gifts
T20 sequence (P52564 whole entry): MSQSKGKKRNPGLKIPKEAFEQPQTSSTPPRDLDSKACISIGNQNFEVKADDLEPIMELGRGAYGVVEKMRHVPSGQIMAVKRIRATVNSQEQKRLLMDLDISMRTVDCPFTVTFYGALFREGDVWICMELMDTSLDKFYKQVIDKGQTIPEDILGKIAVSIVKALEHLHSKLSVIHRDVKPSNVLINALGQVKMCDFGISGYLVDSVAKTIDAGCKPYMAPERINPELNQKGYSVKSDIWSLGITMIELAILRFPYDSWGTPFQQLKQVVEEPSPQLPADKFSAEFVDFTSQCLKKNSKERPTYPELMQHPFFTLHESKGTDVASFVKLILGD

[21] = target: T21, CDK2/cyclin A (Homo sapiens, UniProt P24941); test: Selectivity panel CDK2/cyclin A; assay type: biochemical; conditions: 5 µM inhibitor
T21 construct: purchased Life Technologies (Invitrogen SelectScreen); Dyrk1A, Dyrk2 and CK2α in-house or gifts

[22] = target: T22, NEK7 (Homo sapiens, UniProt Q8TDX7); test: Selectivity panel NEK7; assay type: biochemical; conditions: 5 µM inhibitor
T22 construct: purchased Life Technologies (Invitrogen SelectScreen); Dyrk1A, Dyrk2 and CK2α in-house or gifts
T22 sequence (Q8TDX7 whole entry): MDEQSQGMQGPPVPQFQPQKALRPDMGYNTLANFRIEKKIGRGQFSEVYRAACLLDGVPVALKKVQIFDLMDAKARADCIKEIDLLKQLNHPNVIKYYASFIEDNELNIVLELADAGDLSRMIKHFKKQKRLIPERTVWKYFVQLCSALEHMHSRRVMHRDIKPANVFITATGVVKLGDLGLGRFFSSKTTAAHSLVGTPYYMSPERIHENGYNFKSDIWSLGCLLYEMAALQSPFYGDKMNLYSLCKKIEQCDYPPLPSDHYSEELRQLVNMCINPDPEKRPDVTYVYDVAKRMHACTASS

[23] = target: T23, FYN (Homo sapiens, UniProt P06241); test: Selectivity panel FYN; assay type: biochemical; conditions: 5 µM inhibitor
T23 construct: purchased Life Technologies (Invitrogen SelectScreen); Dyrk1A, Dyrk2 and CK2α in-house or gifts

[24] = target: T24, MKNK1 (MNK1) (Homo sapiens, UniProt Q9BUB5); test: Selectivity panel MKNK1; assay type: biochemical; conditions: 5 µM inhibitor
T24 construct: purchased Life Technologies (Invitrogen SelectScreen); Dyrk1A, Dyrk2 and CK2α in-house or gifts

[25] = target: T25, AURKA (Aurora A) (Homo sapiens, UniProt O14965); test: Selectivity panel AURKA; assay type: biochemical; conditions: 5 µM inhibitor
T25 construct: purchased Life Technologies (Invitrogen SelectScreen); Dyrk1A, Dyrk2 and CK2α in-house or gifts

[26] = target: T26, STK22B (TSSK2) (Homo sapiens, UniProt Q96PF2); test: Selectivity panel STK22B; assay type: biochemical; conditions: 5 µM inhibitor
T26 construct: purchased Life Technologies (Invitrogen SelectScreen); Dyrk1A, Dyrk2 and CK2α in-house or gifts

[27] = target: T27, TEK (Tie2) (Homo sapiens, UniProt Q02763); test: Selectivity panel TEK; assay type: biochemical; conditions: 5 µM inhibitor
T27 construct: purchased Life Technologies (Invitrogen SelectScreen); Dyrk1A, Dyrk2 and CK2α in-house or gifts
T27 sequence (Q02763 23-1124): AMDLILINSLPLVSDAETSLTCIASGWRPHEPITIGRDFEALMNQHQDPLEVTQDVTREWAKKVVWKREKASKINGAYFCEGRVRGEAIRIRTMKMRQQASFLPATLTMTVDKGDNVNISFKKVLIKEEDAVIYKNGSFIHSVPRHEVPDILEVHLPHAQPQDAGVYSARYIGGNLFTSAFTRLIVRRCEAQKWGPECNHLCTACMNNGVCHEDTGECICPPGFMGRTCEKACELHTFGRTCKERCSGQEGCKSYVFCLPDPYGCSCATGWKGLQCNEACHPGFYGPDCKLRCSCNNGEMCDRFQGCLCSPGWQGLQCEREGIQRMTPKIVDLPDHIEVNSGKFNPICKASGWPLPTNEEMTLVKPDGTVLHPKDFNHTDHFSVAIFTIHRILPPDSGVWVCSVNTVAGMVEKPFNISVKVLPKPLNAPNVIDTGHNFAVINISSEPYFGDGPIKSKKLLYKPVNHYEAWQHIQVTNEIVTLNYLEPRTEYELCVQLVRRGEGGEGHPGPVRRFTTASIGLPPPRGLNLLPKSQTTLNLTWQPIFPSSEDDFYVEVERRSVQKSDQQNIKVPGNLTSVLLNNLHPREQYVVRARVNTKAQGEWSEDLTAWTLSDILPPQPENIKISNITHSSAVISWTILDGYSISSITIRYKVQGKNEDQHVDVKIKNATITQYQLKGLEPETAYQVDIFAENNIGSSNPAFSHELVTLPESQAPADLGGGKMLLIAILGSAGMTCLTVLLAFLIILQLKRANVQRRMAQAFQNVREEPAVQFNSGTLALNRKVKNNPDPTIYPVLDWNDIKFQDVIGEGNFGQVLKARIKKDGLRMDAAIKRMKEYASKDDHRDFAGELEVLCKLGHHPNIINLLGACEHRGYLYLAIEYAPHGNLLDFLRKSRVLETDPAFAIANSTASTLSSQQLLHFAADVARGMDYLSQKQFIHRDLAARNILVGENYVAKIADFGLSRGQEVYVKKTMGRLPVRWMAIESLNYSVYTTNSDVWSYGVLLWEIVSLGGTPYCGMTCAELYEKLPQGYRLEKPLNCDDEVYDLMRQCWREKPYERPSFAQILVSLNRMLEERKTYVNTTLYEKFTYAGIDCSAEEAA

[28] = target: T28, RIPK2 (Homo sapiens, UniProt O43353); test: Selectivity panel RIPK2; assay type: biochemical; conditions: 5 µM inhibitor
T28 construct: purchased Life Technologies (Invitrogen SelectScreen); Dyrk1A, Dyrk2 and CK2α in-house or gifts

[29] = target: T29, CHEK1 (CHK1) (Homo sapiens, UniProt O14757); test: Selectivity panel CHEK1; assay type: biochemical; conditions: 5 µM inhibitor
T29 construct: purchased Life Technologies (Invitrogen SelectScreen); Dyrk1A, Dyrk2 and CK2α in-house or gifts

[30] = tested on: U2OS osteosarcoma cells; test: Caspase-3 Assay (Caspase-Glo 3/7); assay type: cell-based
Experimental: U2OS osteosarcoma cells were seeded in a 96 well flat bottom plate (15*10^3 cells/well). […] The induction of caspase-3/7 activity was measured using the Promega Caspase-Glo 3/7 assay system (Promega, LOT 0000054568). The resulting luciferase reaction signals that are proportional to the caspase induction were measured in a POLARstar plate reader (BMG Labtech, Offenburg, Germany). […] Values obtained for different compound concentrations were compared using the two-sided Student's t test; levels of significance thus obtained are indicated by asterisks.

[31] = target: T30, RET (Homo sapiens, UniProt P07949); test: Selectivity panel RET; assay type: biochemical; conditions: 5 µM inhibitor
T30 construct: purchased Life Technologies (Invitrogen SelectScreen); Dyrk1A, Dyrk2 and CK2α in-house or gifts

[32] = target: T31, TAOK2 (TAO1) (Homo sapiens, UniProt Q9UL54); test: Selectivity panel TAOK2; assay type: biochemical; conditions: 5 µM inhibitor
T31 construct: purchased Life Technologies (Invitrogen SelectScreen); Dyrk1A, Dyrk2 and CK2α in-house or gifts

[33] = target: T32, PRKACA (PKA) (Homo sapiens, UniProt P17612); test: Selectivity panel PRKACA; assay type: biochemical; conditions: 5 µM inhibitor
T32 construct: purchased Life Technologies (Invitrogen SelectScreen); Dyrk1A, Dyrk2 and CK2α in-house or gifts

[34] = target: T33, LIMK1 (Homo sapiens, UniProt P53667); test: Selectivity panel LIMK1; assay type: biochemical; conditions: 5 µM inhibitor
T33 construct: purchased Life Technologies (Invitrogen SelectScreen); Dyrk1A, Dyrk2 and CK2α in-house or gifts
T33 sequence (P53667 whole entry): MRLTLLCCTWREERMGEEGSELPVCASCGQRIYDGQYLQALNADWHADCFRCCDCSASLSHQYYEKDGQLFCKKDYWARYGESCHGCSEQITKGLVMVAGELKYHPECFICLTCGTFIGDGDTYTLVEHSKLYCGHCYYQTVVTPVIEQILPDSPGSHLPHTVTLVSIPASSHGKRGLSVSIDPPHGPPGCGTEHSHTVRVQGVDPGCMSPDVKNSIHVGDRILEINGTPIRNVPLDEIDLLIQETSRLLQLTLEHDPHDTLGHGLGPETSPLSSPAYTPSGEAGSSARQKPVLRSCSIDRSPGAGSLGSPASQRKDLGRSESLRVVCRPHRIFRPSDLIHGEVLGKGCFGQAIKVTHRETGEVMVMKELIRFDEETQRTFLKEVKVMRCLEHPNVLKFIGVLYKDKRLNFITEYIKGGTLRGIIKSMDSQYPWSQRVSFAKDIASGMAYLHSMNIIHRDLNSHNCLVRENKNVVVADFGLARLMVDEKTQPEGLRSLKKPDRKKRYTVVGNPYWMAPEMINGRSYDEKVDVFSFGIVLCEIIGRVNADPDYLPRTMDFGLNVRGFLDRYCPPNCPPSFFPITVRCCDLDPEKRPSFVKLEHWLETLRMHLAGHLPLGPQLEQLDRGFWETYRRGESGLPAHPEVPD

[35] = target: T34, EPHA5 (Homo sapiens, UniProt P54756); test: Selectivity panel EPHA5; assay type: biochemical; conditions: 5 µM inhibitor
T34 construct: purchased Life Technologies (Invitrogen SelectScreen); Dyrk1A, Dyrk2 and CK2α in-house or gifts

[36] = target: T35, PAK4 (Homo sapiens, UniProt O96013); test: Selectivity panel PAK4; assay type: biochemical; conditions: 5 µM inhibitor
T35 construct: purchased Life Technologies (Invitrogen SelectScreen); Dyrk1A, Dyrk2 and CK2α in-house or gifts

[37] = target: T36, CLK2 (Homo sapiens, UniProt P49760); test: Selectivity panel CLK2; assay type: biochemical; conditions: 5 µM inhibitor
T36 construct: purchased Life Technologies (Invitrogen SelectScreen); Dyrk1A, Dyrk2 and CK2α in-house or gifts

[38] = target: T37, DYRK4 (Homo sapiens, UniProt Q9NR20); test: Selectivity panel DYRK4; assay type: biochemical; conditions: 5 µM inhibitor
T37 construct: purchased Life Technologies (Invitrogen SelectScreen); Dyrk1A, Dyrk2 and CK2α in-house or gifts

[39] = target: T38, RPS6KB1 (p70S6K) (Homo sapiens, UniProt P23443); test: Selectivity panel RPS6KB1; assay type: biochemical; conditions: 5 µM inhibitor
T38 construct: purchased Life Technologies (Invitrogen SelectScreen); Dyrk1A, Dyrk2 and CK2α in-house or gifts

c1cncc(-c2cc(-c3cncs3)cs2)c1 [Compound 29, 3-[4-(1,3-thiazol-5-yl)thiophen-2-yl]pyridine]
inhibition at 5 µM [1]: -6%
inhibition at 5 µM [2]: 1%
inhibition at 5 µM [3]: -2%
inhibition at 5 µM [4]: 12%
inhibition at 5 µM [5]: -1%
inhibition at 5 µM [6]: 2%
inhibition at 5 µM [7]: 36%
inhibition at 5 µM [8]: 1%
inhibition at 5 µM [9]: 32%
inhibition at 5 µM [10]: -16%
inhibition at 5 µM [11]: -1%
inhibition at 5 µM [12]: 9%
inhibition at 5 µM [13]: -18%
inhibition at 5 µM [14]: -7%
inhibition at 5 µM [15]: 15%
inhibition at 5 µM [16]: -10%
inhibition at 5 µM [17]: 20%
inhibition at 5 µM [18]: 2%
inhibition at 5 µM [19]: 36%
inhibition at 5 µM [20]: 5%
inhibition at 5 µM [21]: 22%
inhibition at 5 µM [22]: 0%
inhibition at 5 µM [23]: -2%
inhibition at 5 µM [24]: 83%
inhibition at 5 µM [25]: 5%
inhibition at 5 µM [26]: -2%
inhibition at 5 µM [27]: -1%
inhibition at 5 µM [28]: 53%
inhibition at 5 µM [29]: 3%
concentration at which induction of caspase-3/7 was already observed ([30]; U2OS cells, not statistically significant at this concentration): 0.5 µM
caspase-3/7 activity ([30]; starved U2OS cells, 48 hours, vs DMSO control): clear increase
inhibition at 5 µM [31]: -1%
inhibition at 5 µM [32]: -6%
inhibition at 5 µM [33]: 1%
inhibition at 5 µM [34]: 11%
inhibition at 5 µM [35]: -9%
inhibition at 5 µM [36]: 3%
inhibition at 5 µM [37]: 72%
inhibition at 5 µM [38]: 13%
inhibition at 5 µM [39]: -2%
